16 compounds from US12180207B2 (ARRAY BIOPHARMA INC., priority 2018, dated 2024) can be followed below.

Assay [1] deals with FGFR1 (SEQ ID NO: 1, amino acids 458-765) (Homo sapiens (Human), UniProt P11362). Briefly: LC/MS FGFR1 kobs assay (covalent protein modification). The assay is classed as binding. The settings on record: 500 nM FGFR1, 3 μM compound. In a few lines:
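Covalent labeling of FGFR1 kinase domain (aa 458-765) tracked over time by intact-protein LC/MS after formic acid quench. kobs derived by fitting DMSO-normalized percent unmodified FGFR1 to an exponential decay model.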

The target in assay [2] is phosphorylated FGFR3 (SEQ ID NO: 5, amino acids 449 to 759) (Homo sapiens (Human), UniProt P22607). Briefly: FGFR enzyme binding assay (HTRF tracer displacement), FGFR3. The settings on record: 5 nM phosphorylated FGFR3, average of multiple determinations if made. The gist of the method:
(§1)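 Compounds were tested for displacement of a tracer from human FGFR kinase in a time-resolved FRET binding format. After 60 minutes at 22° C, signal was read at two wavelengths and converted to percent of control, normalised between untreated wells and 1 μM reference inhibitor.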

The target in assay [3] is recombinant human FGFR3 (amino acids R397-T806) (Homo sapiens (Human), UniProt P22607). Briefly: FGFR3 enzyme activity assay (LanthaScreen TR-FRET). The assay is classed as biochemical. As to conditions: 25 μM ATP, 10 min incubation at 22° C., average of multiple determinations if made, read-out: FGFR3 Enz FRET IC50. The gist of the method: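 GST-HIS6-tagged human FGFR3 (R397-T806) was reacted with 100 nM Alexa Fluor 647-Poly-GT substrate and 25 μM ATP plus compound in HEPES/MgCl2/Triton buffer, pH 7.5, 2% DMSO, for 10 min at 22 °C.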
recombinant human FGFR3 (amino acids R397-T806), sequence (P22607 397-806): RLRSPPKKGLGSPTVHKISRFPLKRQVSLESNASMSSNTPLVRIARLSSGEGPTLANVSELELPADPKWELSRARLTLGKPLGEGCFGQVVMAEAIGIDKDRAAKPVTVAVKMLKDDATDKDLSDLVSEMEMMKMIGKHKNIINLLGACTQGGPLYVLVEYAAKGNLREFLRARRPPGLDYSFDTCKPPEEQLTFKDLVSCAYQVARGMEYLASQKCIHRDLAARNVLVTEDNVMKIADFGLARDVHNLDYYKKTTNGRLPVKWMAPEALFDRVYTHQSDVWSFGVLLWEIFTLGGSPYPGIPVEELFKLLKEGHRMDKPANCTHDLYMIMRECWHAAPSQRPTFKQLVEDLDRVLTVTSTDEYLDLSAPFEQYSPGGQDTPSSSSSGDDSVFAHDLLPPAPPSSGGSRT
Background: Time-resolved FRET reads energy transfer from a long-lived donor to a nearby acceptor.

The target in assay [4] is dephosphorylated FGFR1 (SEQ ID NO: 1, amino acids 458 to 765) (Homo sapiens (Human), UniProt P11362). The assay is described as follows: FGFR enzyme binding assay (HTRF tracer displacement), FGFR1. As to conditions: 5 nM dephosphorylated FGFR1, average of multiple determinations if made. In a few lines:
as §1

In assay [5] the target is recombinant human FGFR1 catalytic domain (amino acids 308-731) (Homo sapiens (Human), UniProt P11362). The assay is described as follows: FGFR1 enzyme activity assay (LanthaScreen TR-FRET). The assay is classed as biochemical. As to conditions: 20 min incubation at 22° C., average of multiple determinations if made, read-out: FGFR1 Enz FRET IC50. The gist of the method:
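His-tagged FGFR1 kinase domain with 100 nM Alexa Fluor 647-poly-GT peptide and ATP in pH 7.5 HEPES/MgCl2 buffer with 2% DMSO, 20 min at 22 °C. Quenched with EDTA plus 2 nM Eu-PY20 antibody and read after 60 min. IC50 comes from a 4-parameter fit of percent of control.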

recombinant human FGFR1 catalytic domain (amino acids 308-731), sequence (P11362 other isoform, or with tags, fused parts or gaps): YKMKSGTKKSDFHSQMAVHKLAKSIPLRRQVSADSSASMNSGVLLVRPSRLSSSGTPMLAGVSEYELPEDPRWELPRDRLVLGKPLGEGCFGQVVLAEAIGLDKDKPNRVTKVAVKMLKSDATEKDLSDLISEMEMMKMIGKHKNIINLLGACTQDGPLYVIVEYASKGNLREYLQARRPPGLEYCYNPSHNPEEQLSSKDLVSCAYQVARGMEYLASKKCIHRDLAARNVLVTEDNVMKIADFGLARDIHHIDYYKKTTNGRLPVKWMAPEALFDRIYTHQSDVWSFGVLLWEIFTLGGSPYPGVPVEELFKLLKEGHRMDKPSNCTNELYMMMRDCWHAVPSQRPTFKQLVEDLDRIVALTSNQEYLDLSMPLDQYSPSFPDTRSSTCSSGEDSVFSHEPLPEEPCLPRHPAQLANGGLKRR
dephosphorylated FGFR1 (SEQ ID NO: 1, amino acids 458 to 765), sequence (P11362 458-765): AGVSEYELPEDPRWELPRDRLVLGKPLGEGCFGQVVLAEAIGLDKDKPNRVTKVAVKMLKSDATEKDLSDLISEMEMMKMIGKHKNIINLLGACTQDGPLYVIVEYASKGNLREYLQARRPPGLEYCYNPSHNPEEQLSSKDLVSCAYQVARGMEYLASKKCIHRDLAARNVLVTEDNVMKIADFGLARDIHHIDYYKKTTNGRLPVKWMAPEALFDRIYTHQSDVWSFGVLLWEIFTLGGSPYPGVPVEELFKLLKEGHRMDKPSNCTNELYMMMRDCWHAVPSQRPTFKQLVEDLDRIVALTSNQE
FGFR1 (SEQ ID NO: 1, amino acids 458-765), sequence (P11362 458-765): as above
phosphorylated FGFR3 (SEQ ID NO: 5, amino acids 449 to 759), sequence (P22607 449-759): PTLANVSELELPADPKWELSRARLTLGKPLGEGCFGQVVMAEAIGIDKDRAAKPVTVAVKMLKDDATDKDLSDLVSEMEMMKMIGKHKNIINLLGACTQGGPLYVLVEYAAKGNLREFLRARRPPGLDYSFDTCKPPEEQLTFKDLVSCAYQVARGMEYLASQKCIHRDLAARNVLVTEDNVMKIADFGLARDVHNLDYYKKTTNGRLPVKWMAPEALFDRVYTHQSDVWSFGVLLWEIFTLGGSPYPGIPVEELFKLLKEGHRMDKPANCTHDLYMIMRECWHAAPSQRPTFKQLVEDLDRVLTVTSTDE

Consider `C=CC(=O)N1CC(C(=O)N2CC[C@@H](n3cc(-c4cc(OC)c5c(C#N)cnn5c4)cn3)C2)C1` [Example 59, (R)-6-(1-(1-(1-acryloylazetidine-3-carbonyl)pyrrolidin-3-yl)-1H-pyrazol-4-yl)-4-methoxypyrazolo[1,5-a]pyridine-3-carbonitrile], for which the “FGFR1 Enz kobs” value in assay [1] is 0.00106 min⁻¹. Besides, the concentration for half-maximal inhibition (IC50) (in general, the midpoint of a concentration-inhibition curve) in assay [2] was 16 nM; in assay [3], 16 nM; in assay [4], 115 nM; in assay [5], 47 nM.
Consider `C=CC(=O)Nc1ccc(C(=O)N2CC[C@H](n3cc(-c4cc(OC)c5c(C#N)cnn5c4)cn3)C2)cc1` [Example 66, (S)-N-(4-(3-(4-(3-cyano-4-methoxypyrazolo[1,5-a]pyridin-6-yl)-1H-pyrazol-1-yl)pyrrolidine-1-carbonyl)phenyl)acrylamide], for which the “FGFR1 Enz kobs” value in assay [1] is 0.00332 min⁻¹. Moreover, the IC50 is 10 nM in assay [2], 7 nM in assay [3], 72 nM in assay [4] and 16 nM in assay [5].
For the compound `C=CC(=O)Nc1ccc(C(=O)N2CC[C@H](n3cc(-c4cc(OC)c5c(C#N)cnn5c4)cn3)C2)c(C)c1` [Example 68, (S)-N-(4-(3-(4-(3-cyano-4-methoxypyrazolo[1,5-a]pyridin-6-yl)-1H-pyrazol-1-yl)pyrrolidine-1-carbonyl)-3-methylphenyl)acrylamide], the “FGFR1 Enz kobs” value in assay [1] amounted to 0.00181 min⁻¹. Moreover, the IC50 was found to be 13 nM in assay [2], 5 nM in assay [3], 94 nM in assay [4] and 6 nM in assay [5].
Taken in the same sequence, the figures for `C=CC(=O)Nc1ccc(C(=O)N2CC[C@H](n3cc(-c4cc(OC)c5c(C#N)cnn5c4)cn3)C2)c(OC)c1` [Example 69, (S)-N-(4-(3-(4-(3-cyano-4-methoxypyrazolo[1,5-a]pyridin-6-yl)-1H-pyrazol-1-yl)pyrrolidine-1-carbonyl)-3-methoxyphenyl)acrylamide] were 0.00422 min⁻¹, 11 nM, 6 nM, 77 nM and 12 nM.
As to `C=CC(=O)Nc1ccc(C(=O)N2CC[C@H](n3cc(-c4cc(OC)c5c(C#N)cnn5c4)cn3)C2)cc1C` [Example 70, (S)-N-(4-(3-(4-(3-cyano-4-methoxypyrazolo[1,5-a]pyridin-6-yl)-1H-pyrazol-1-yl)pyrrolidine-1-carbonyl)-2-methylphenyl)acrylamide], the “FGFR1 Enz kobs” value in assay [1] stood at 0.00278 min⁻¹. Moreover, the IC50 in assay [2] was determined as 30 nM; in assay [3], 6 nM; in assay [4], 199 nM; in assay [5] it was 16 nM.
`C=CC(=O)Nc1ccc(C(=O)N2CC[C@H](n3cc(-c4cc(OC)c5c(C#N)cnn5c4)cn3)C2)cc1OC` [Example 71, (S)-N-(4-(3-(4-(3-cyano-4-methoxypyrazolo[1,5-a]pyridin-6-yl)-1H-pyrazol-1-yl)pyrrolidine-1-carbonyl)-2-methoxyphenyl)acryla72 mide]: the “FGFR1 Enz kobs” value in assay [1] stood at 0.00457 min⁻¹. In addition, the IC50 in assay [2] is 18 nM; in assay [3], 6 nM; in assay [4], 147 nM; in assay [5], 18 nM.
Regarding `C=CC(=O)N1CC(C(=O)N2CC[C@H](n3cc(-c4cc(OC)c5c(C#N)cnn5c4)cn3)C2)C1` [Example 73, (S)-6-(1-(1-(1-acryloylazetidine-3-carbonyl)pyrrolidin-3-yl)-1H-pyrazol-4-yl)-4-methoxypyrazolo[1,5-a]pyridine-3-carbonitrile], the “FGFR1 Enz kobs” value in assay [1] worked out at 0.00108 min⁻¹. The IC50 in assay [2] was 7 nM; in assay [3], 4 nM; in assay [4] it was 58 nM; in assay [5], 20 nM.
For `C=CC(=O)N1CC[C@H](C(=O)N2CC(n3cc(-c4cc(OC)c5c(C#N)cnn5c4)cn3)C2)C1` [Example 76, (S)-6-(1-(1-(1-acryloylpyrrolidine-3-carbonyl)azetidin-3-yl)-1H-pyrazol-4-yl)-4-methoxypyrazolo[1,5-a]pyridine-3-carbonitrile], in that order: 0.0007 min⁻¹, 55 nM, 13 nM, 409 nM and 52 nM.
Consider `C=CC(=O)N1CC(C(=O)N2CC(n3cc(-c4cc(OC)c5c(C#N)cnn5c4)cn3)C2)C1` [Example 78, 6-(1-(1-(1-acryloylazetidine-3-carbonyl)azetidin-3-yl)-1H-pyrazol-4-yl)-4-methoxypyrazolo[1,5-a]pyridine-3-carbonitrile], for which the “FGFR1 Enz kobs” value in assay [1] was determined as 0.00146 min⁻¹. In addition, the IC50 in assay [2] came out at 8 nM; in assay [3], 12 nM; in assay [4], 98 nM; in assay [5], 17 nM.
Taken in the same sequence, the figures for `C=CC(=O)N1CC(CN2CC(n3cc(-c4cc(OC)c5c(C#N)cnn5c4)cn3)C2)C1` [Example 81, 6-(1-(1-((1-acryloylazetidin-3-yl)methyl)azetidin-3-yl)-1H-pyrazol-4-yl)-4-methoxypyrazolo[1,5-a]pyridine-3-carbonitrile] were 0.00086 min⁻¹, 60 nM, 9 nM, 186 nM and 31 nM.
Taken in the same sequence, the figures for `C=CC(=O)N1CCC(C(=O)N2CCC(n3ncc(-c4cc(OC)c5c(C#N)cnn5c4)c3C)CC2)CC1` [Example 82, 6-(1-(1-(1-acryloylpiperidine-4-carbonyl)piperidin-4-yl)-5-methyl-1H-pyrazol-4-yl)-4-methoxypyrazolo[1,5-a]pyridine-3-carbonitrile] were 0.00034 min⁻¹, 23 nM, 10 nM, 374 nM and 73 nM.
As for `C=CC(=O)N1CC[C@@H](C(=O)N2CCC(n3ncc(-c4cc(OC)c5c(C#N)cnn5c4)c3C)CC2)C1` [Example 83, (R)-6-(1-(1-(1-acryloylpyrrolidine-3-carbonyl)piperidin-4-yl)-5-methyl-1H-pyrazol-4-yl)-4-methoxypyrazolo[1,5-a]pyridine-3-carbonitrile], the “FGFR1 Enz kobs” value in assay [1] was determined as 0.00058 min⁻¹. Also, the IC50 in assay [2] came to 14 nM; in assay [3], 7 nM; in assay [4], 420 nM; in assay [5], 77 nM.
Taken in the same sequence, the figures for `C=CC(=O)N1CC(C(=O)N2CCC(n3ncc(-c4cc(OC)c5c(C#N)cnn5c4)c3C)CC2)C1` [Example 84, 6-(1-(1-(1-acryloylazetidine-3-carbonyl)piperidin-4-yl)-5-methyl-1H-pyrazol-4-yl)-4-methoxypyrazolo[1,5-a]pyridine-3-carbonitrile] were 0.00183 min⁻¹, 22 nM, 6 nM, 777 nM and 100 nM.
With `C=CC(=O)N1CC(F)(C(=O)N2CCC(n3ncc(-c4cc(OC)c5c(C#N)cnn5c4)c3C)CC2)C1` [Example 85, 6-(1-(1-(1-acryloyl-3-fluoroazetidine-3-carbonyl)piperidin-4-yl)-5-methyl-1H-pyrazol-4-yl)-4-methoxypyrazolo[1,5-a]pyridine-3-carbonitrile], in assay [1], the “FGFR1 Enz kobs” value was determined as 0.00492 min⁻¹. Besides, the IC50 in assay [2] stood at 3 nM; in assay [3], 7 nM; in assay [4], 247 nM; in assay [5], 77 nM.
Taken in the same sequence, the figures for `C=CC(=O)N1CC(C)(C(=O)N2CCC(n3ncc(-c4cc(OC)c5c(C#N)cnn5c4)c3C)CC2)C1` [Example 86, 6-(1-(1-(1-acryloyl-3-methylazetidine-3-carbonyl)piperidin-4-yl)-5-methyl-1H-pyrazol-4-yl)-4-methoxypyrazolo[1,5-a]pyridine-3-carbonitrile] were 0.00258 min⁻¹, 9 nM, 11 nM, 342 nM and 617 nM.
Take `C=CC(=O)N1CC(C(=O)N2CCC(n3ncc(-c4cc(OC)c5c(C#N)cnn5c4)c3C)CC2)C1(C)C` (centres unmarked) [Example 87, 6-(1-(1-(1-acryloyl-2,2-dimethylazetidine-3-carbonyl)piperidin-4-yl)-5-methyl-1H-pyrazol-4-yl)-4-methoxypyrazolo[1,5-a]pyridine-3-carbonitrile]: the “FGFR1 Enz kobs” value in assay [1] worked out at 0.00052 min⁻¹. Further, the IC50 in assay [2] worked out at 16 nM; in assay [3], 32 nM; in assay [4] it was 322 nM; in assay [5] it was 240 nM.
